Source: US4459290A, “C-23-Modified derivatives of OMT, pharmaceutical compositions and method of use” (priority 1982, dated 1984)
In brackets after ≈: the same amount, converted by molar mass. Like-named read-outs stand apart in the source and are kept apart here.

Columns and labels:
Escherichia coli EC14 = experiment: MIC, standard agar-dilution assay (Table V); type: cell-based; details: Escherichia coli
Outline: (§1)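 Growth inhibition in liquid medium, in a routine microtiter broth-dilution series, gave the MIC against staphylococci and pasteurellae; the gram-negative enteric strain was tested by conventional agar dilution instead.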

Escherichia coli N10 = experiment: MIC, standard agar-dilution assay (Table V); type: cell-based; details: Escherichia coli
Outline: as §1

[1] = tested on: Klebsiella pneumoniae KAE; experiment: MIC, standard agar-dilution assay (Table V); type: cell-based; details: Klebsiella pneumoniae
Outline: as §1

[2] = tested on: Klebsiella pneumoniae X26; experiment: MIC, standard agar-dilution assay (Table V); type: cell-based; details: Klebsiella pneumoniae, X26
Experimental: (§2) Especially noteworthy is the improved activity against gram-negative bacteria for several derivatives when compared to the activity of OMT. […] The MIC's in Tables V and VI were determined by standard agar-dilution assays. The MIC's in Table VII were obtained using a conventional broth-dilution microtiter test.

Shigella sonnei N9 = experiment: MIC, standard agar-dilution assay (Table V); type: cell-based
Outline: as §1

[3] = tested on: Staphylococcus aureus S13E; experiment: MIC, standard agar-dilution assay (Table V); type: cell-based; details: Staphylococcus aureus, S13E
Experimental: as §2

[4] = tested on: Staphylococcus aureus V41; experiment: MIC, standard agar-dilution assay (Table V); type: cell-based; details: Staphylococcus aureus
Experimental: as §2

[5] = tested on: Staphylococcus aureus X1.1; experiment: MIC, standard agar-dilution assay (Table V); type: cell-based; details: Staphylococcus aureus, X1.1
Experimental: as §2

[6] = tested on: Staphylococcus aureus X400; experiment: MIC, standard agar-dilution assay (Table V); type: cell-based; details: Staphylococcus aureus
Experimental: as §2

[7] = tested on: Staphylococcus epidermidis EPI1; experiment: MIC, standard agar-dilution assay (Table V); type: cell-based; details: Staphylococcus epidermidis
Experimental: as §2

[8] = tested on: Staphylococcus epidermidis EPI2; experiment: MIC, standard agar-dilution assay (Table V); type: cell-based; details: Staphylococcus epidermidis; S. epidermidis EPI2; agar dilution; read-out: MIC
Experimental: as §2

Streptococcus Group 9960 = experiment: MIC, standard agar-dilution assay (Table V); type: cell-based; details: GROUP9960; Streptococcus Group 9960; agar dilution; read-out: MIC
Experimental: as §2

[9] = tested on: Streptococcus Group D X66; experiment: MIC, standard agar-dilution assay (Table V); type: cell-based
Experimental: as §2

Escherichia coli TEM = experiment: MIC, standard agar-dilution assay (Table V); type: cell-based; details: Escherichia coli
Experimental: (§3) The MIC's in Tables V and VI were determined by standard agar-dilution assays. The MIC's in Table VII were obtained using a conventional broth-dilution microtiter test.

[10] = tested on: Haemophilus influenzae Holt; experiment: MIC, standard agar-dilution assay (Table V); type: cell-based; details: Haemophilus influenzae
Experimental: as §3

[11] = tested on: Haemophilus influenzae R252; experiment: MIC, standard agar-dilution assay (Table V); type: cell-based; details: Haemophilus influenzae, R252
Experimental: as §3

[12] = tested on: Streptococcus pyogenes C203; experiment: MIC, standard agar-dilution assay (Table V); type: cell-based; details: Streptococcus pyogenes, C203
Experimental: as §3

[13] = tested on: Streptococcus pneumoniae Park I; experiment: microbe, parasite or virus in culture; type: cell-based; details: Streptococcus pneumoniae; read-out: MIC
Experimental: as §2

Mycoplasma gallisepticum = experiment: MIC, broth-dilution microtiter test (Table VII); type: cell-based; details: Mycoplasmoides gallisepticum; M. gallisepticum; broth-dilution microtiter; read-out: MIC
Experimental: as §2

Mycoplasma hyorhinis = experiment: MIC, broth-dilution microtiter test (Table VII); type: cell-based; details: M. hyorhinis; broth-dilution microtiter; read-out: MIC
Experimental: as §2

Mycoplasma synoviae = experiment: MIC, broth-dilution microtiter test (Table VII); type: cell-based; details: Mycoplasmopsis synoviae; M. synoviae; broth-dilution microtiter; read-out: MIC
Experimental: as §2

[14] = tested on: Pasteurella hemolytica 22C; experiment: MIC, broth-dilution microtiter test (Table VII); type: cell-based; details: Pasteurella, P. hemolytica 22C, read-out: MIC
Outline: (§4)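 Broth microdilution, run as a conventional microtiter test, supplied MICs for the gram-positive S. aureus and the Pasteurella isolates. Enterobacter data instead rest on a standard agar-dilution procedure.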

[15] = tested on: Pasteurella hemolytica 23C; experiment: MIC, broth-dilution microtiter test (Table VII); type: cell-based; details: Pasteurella, P. hemolytica 23C, read-out: MIC
Outline: as §4

[16] = tested on: Pasteurella hemolytica 41D; experiment: MIC, broth-dilution microtiter test (Table VII); type: cell-based; details: Pasteurella, P. hemolytica 41D, read-out: MIC
Outline: as §4

[17] = tested on: Pasteurella multocida 17E; experiment: MIC, broth-dilution microtiter test (Table VII); type: cell-based; details: Pasteurella multocida; P. multocida 17E, bovine isolate; broth-dilution microtiter; read-out: MIC
Outline: as §4

[18] = tested on: Pasteurella multocida 22A; experiment: MIC, broth-dilution microtiter test (Table VII); type: cell-based; details: Pasteurella multocida; P. multocida 22A; broth-dilution microtiter; read-out: MIC
Outline: as §4

[19] = tested on: Pasteurella multocida 40G; experiment: MIC, broth-dilution microtiter test (Table VII); type: cell-based; details: Pasteurella multocida; P. multocida 40G; broth-dilution microtiter; read-out: MIC
Outline: as §4

[20] = tested on: Pasteurella multocida 60A; experiment: MIC, broth-dilution microtiter test (Table VII); type: cell-based; details: Pasteurella multocida; P. multocida 60A, avian isolate; broth-dilution microtiter; read-out: MIC
Outline: as §4

[21] = tested on: Pasteurella multocida 68C; experiment: MIC, broth-dilution microtiter test (Table VII); type: cell-based; details: Pasteurella multocida; P. multocida 68C; broth-dilution microtiter; read-out: MIC
Outline: as §4

Staphylococcus aureus = experiment: MIC, broth-dilution microtiter test (Table VII); type: cell-based; details: Staphylococcus aureus; S. aureus; broth-dilution microtiter; read-out: MIC
Outline: as §4

Streptococcus sp. 80 = experiment: MIC, broth-dilution microtiter test (Table VII); type: cell-based; details: Streptococcus sp. 80; broth-dilution microtiter; read-out: MIC
Experimental: as §2

[22] = tested on: Streptococcus pyogenes C203; experiment: ED50 in mice experimentally infected with S. pyogenes C203 (Table VIII); type: in vivo
Experimental: The C-23 modified derivatives of OMT of this invention have shown in vivo antimicrobial activity against experimental infections. When two doses of test compound were administered to mice experimentally infected with a gram-positive bacterium, S. pyogenes C203, the activity observed was measured as an ED50 value [effective dose in mg/kg to protect 50% of the test animals: see Warren Wick, et al., J. Bacteriol. 81, 233-235 (1961)].

Pasteurella multocida = experiment: Protection of one-day-old chicks against Pasteurella multocida infection (Table IX); type: in vivo; details: subcutaneous 30 mg/kg × 2, 1 and 4 hours post-challenge
Experimental: The C-23 modified derivatives of OMT have also shown in vivo antibacterial activity against infections induced by gram-negative bacteria. Table IX summarizes the results of tests in which illustrative compounds were evaluated against Pasteurella infections in one-day-old chicks. The compounds were administered by subcutaneous injection at a dosage of 30 mg/kg, 1 and 4 hours post-challenge of the chicks with Pasteurella multocida (0.1 ml of a twenty-hour tryptose broth culture of an avian P. multocida given subcutaneously). In the tests, all ten non-medicated infected chicks died within 24 hours of Pasteurella challenge.

these strains = experiment: Activity against the strains of Table VI, agar-dilution; type: cell-based; details: at the levels tested
Experimental: as §2

[23] = C203, sc, mice, subcutaneous, doses given 1 and 4 hours postinfection, read-out: ED50, Subcutaneous

CCC1OC(=O)CC(O)C(C)C(OC2OC(C)C(O)C(N(C)C)C2O)C(CC=O)CC(C)C(=O)C=CC(C)=CC1CSc1nnc(C)o1 (centres unmarked) [Compound 4]
MIC (Escherichia coli EC14; E. coli EC14, agar dilution, read-out: MIC): > 128 µg/mL | MIC (Escherichia coli N10; E. coli N10, agar dilution, read-out: MIC): > 128 µg/mL | MIC ([1]; K. pneumoniae KAE, agar dilution, read-out: MIC): > 128 µg/mL | MIC [2]: 8 µg/mL (≈ 11.5 µM) | MIC (Shigella sonnei N9): 64 µg/mL (≈ 92 µM) | MIC [3]: 0.25 µg/mL (≈ 0.359 µM) | MIC ([4]; S. aureus V41, penicillin-resistant strain, agar dilution, read-out: MIC): 0.5 µg/mL (≈ 0.719 µM) | MIC [5]: 0.25 µg/mL (≈ 0.359 µM) | MIC ([6]; S. aureus X400, methicillin-resistant strain, agar dilution, read-out: MIC): 0.5 µg/mL (≈ 0.719 µM) | MIC ([7]; S. epidermidis EPI1, agar dilution, read-out: MIC): 0.25 µg/mL (≈ 0.359 µM) | MIC [8]: 0.5 µg/mL (≈ 0.719 µM) | MIC (Streptococcus Group 9960): 0.5 µg/mL (≈ 0.719 µM) | MIC ([9]; Streptococcus Group D X66, agar dilution, read-out: MIC): 0.5 µg/mL (≈ 0.719 µM) | MIC (Escherichia coli TEM): 32 µg/mL (≈ 46 µM) | MIC [10]: 4 µg/mL (≈ 5.75 µM) | MIC [11]: 4 µg/mL (≈ 5.75 µM) | MIC [12]: 0.25 µg/mL (≈ 0.359 µM) | MIC [13]: 0.06 µg/mL (≈ 0.0862 µM) | MIC (Mycoplasma gallisepticum): 0.39 µg/mL (≈ 0.56 µM) | MIC (Mycoplasma hyorhinis): 6.25 µg/mL (≈ 8.98 µM) | MIC (Mycoplasma synoviae): 0.78 µg/mL (≈ 1.12 µM) | MIC [14]: 12.5 µg/mL (≈ 18 µM) | MIC [15]: 12.5 µg/mL (≈ 18 µM) | MIC [16]: 12.5 µg/mL (≈ 18 µM) | MIC [17]: 6.25 µg/mL (≈ 8.98 µM) | MIC [18]: 6.25 µg/mL (≈ 8.98 µM) | MIC [19]: 3.12 µg/mL (≈ 4.48 µM) | MIC [20]: 6.25 µg/mL (≈ 8.98 µM) | MIC [21]: 6.25 µg/mL (≈ 8.98 µM) | MIC (Staphylococcus aureus): 1.56 µg/mL (≈ 2.24 µM) | MIC (Streptococcus sp. 80): 0.39 µg/mL (≈ 0.56 µM) | ED50 ([22]; C203, po, read-out: ED50, Oral): > 100 mg/kg | ED50 [22, 23]: 12.6 mg/kg | Number of deaths/number treated (Pasteurella multocida): 8/10 | activity against these strains (these strains): did not show activity

CCC1OC(=O)CC(O)C(C)C(OC2OC(C)C(O)C(N(C)C)C2O)C(CC=O)CC(C)C(=O)C=CC(C)=CC1CSc1n[nH]c(=O)c(=O)n1C (centres unmarked) [Compound 6, 23-Deoxo-23-(1H-5,6-dioxo-4-methyl-1,2,4-triazin-3-yl)thio-OMT]
MIC (Escherichia coli EC14; EC14): > 128 µg/mL | MIC (Escherichia coli N10; N10): > 128 µg/mL | MIC [1]: > 128 µg/mL | MIC [2]: 64 µg/mL (≈ 86.6 µM) | MIC (Shigella sonnei N9): > 128 µg/mL | MIC [3]: 4 µg/mL (≈ 5.41 µM) | MIC ([4]; V41): 4 µg/mL (≈ 5.41 µM) | MIC [5]: 4 µg/mL (≈ 5.41 µM) | MIC ([6]; X400): 8 µg/mL (≈ 10.8 µM) | MIC ([7]; EPI1): 4 µg/mL (≈ 5.41 µM) | MIC [8]: 8 µg/mL (≈ 10.8 µM) | MIC (Streptococcus Group 9960): 16 µg/mL (≈ 21.7 µM) | MIC [9]: 16 µg/mL (≈ 21.7 µM) | MIC (Escherichia coli TEM): > 128 µg/mL | MIC [10]: 32 µg/mL (≈ 43.3 µM) | MIC [11]: 32 µg/mL (≈ 43.3 µM) | MIC [12]: 1 µg/mL (≈ 1.35 µM) | MIC (Mycoplasma gallisepticum): 6.25 µg/mL (≈ 8.46 µM) | MIC (Mycoplasma hyorhinis): 25 µg/mL (≈ 33.8 µM) | MIC (Mycoplasma synoviae): 3.12 µg/mL (≈ 4.22 µM) | MIC [14]: 50 µg/mL (≈ 67.7 µM) | MIC [15]: 50 µg/mL (≈ 67.7 µM) | MIC [16]: 50 µg/mL (≈ 67.7 µM) | MIC [17]: 25 µg/mL (≈ 33.8 µM) | MIC [18]: 25 µg/mL (≈ 33.8 µM) | MIC [19]: 25 µg/mL (≈ 33.8 µM) | MIC [20]: 25 µg/mL (≈ 33.8 µM) | MIC [21]: 25 µg/mL (≈ 33.8 µM) | MIC (Staphylococcus aureus): 12.5 µg/mL (≈ 16.9 µM) | MIC (Streptococcus sp. 80): 6.25 µg/mL (≈ 8.46 µM) | ED50 ([22]; C203, po, read-out: ED50, Oral): > 100 mg/kg | ED50 [22, 23]: 13.6 mg/kg | activity against these strains (these strains): did not show activity
